Where two headings read alike, the source gives them in different places.
Columns and labels:
male KK-A^y mice = test: Decrease of plasma glucose and triglyceride in KK-Ay mice; type: in vivo; details: non-fasting, 10 mg/kg/day orally for 4 consecutive days, 24 hours after final administration, vs control group
Protocol: The test compounds (compounds of Examples 2, 6, 8, 16, 26, 27 and 31) were suspended in 5% gum arabic solution and administered (10 mg/kg/day) orally to the administration group for 4 consecutive days from the next day. The 5% gum arabic solution was orally administered to the control group.

[1] = tested on: 6-week-old female Wistar rats; details: 30 and 100 mg/kg/day orally, 2 consecutive weeks
Protocol: Using 6-week-old female Wistar rats, toxicity by repeat administration was examined.
(§1) The rats were grouped (6 rats per group) into a control group and test compound (compound of Example 6) administration groups (30 and 100 mg/kg/day), such that the mean and the standard deviation of the body weight of the rats were nearly the same. The test compound was suspended in 0.5% methylcellulose solution and administered orally for 2 consecutive weeks from the next day. The 0.5% methylcellulose solution was orally administered to the control group. The rats were fasted for 16 hr from the last day of administration, anesthetized by intraperitoneal administration of pentobarbital sodium (50 mg/kg) 24 hr after the final administration and the blood was drawn. Using EDTA-added blood, hematocrit value and erythrocyte count were measured, and using serum, AST (GOT) and ALT (GPT) were measured. In addition, the total blood volume was calculated. The white fat around the uterus, and the liver and heart were removed and wet weights thereof were measured.

6-week-old male SD rats = details: 30 and 100 mg/kg/day orally, 4 consecutive weeks
Protocol: Using 6-week-old male SD rats, toxicity by repeat administration was examined.
as §1, with “for 4” for “for 2”, “the epididymides,” for “the uterus,”

male db/db mice = details: for Decrease (%) in glucose level / Decrease (%) in triglyceride: plasma, 24 hours after final administration
Protocol: Using db/db mice genetically showing high plasma glucose, hypertriglyceridemia, insulin resistance and obesity, the pharmacological activity of the test compound of Example 6 was examined.
Blood was drawn under a non-fasting state from the tail vein of male db/db mice, the glucose level and triglyceride level of the plasma were measured using commercially available assay kits (glucose CII-test WAKO and triglyceride G-test WAKO, Wako Pure Chemical Industries, Ltd.). The mice were grouped (6 mice per group) into a control group and test compound (compound of Example 6) administration groups (3 and 10 mg/kg/day), such that the mean and standard deviation of the body weight and the plasma glucose and plasma triglyceride levels in each group were nearly the same. The test compound was suspended in 0.5% methylcellulose solution and administered orally for 2 consecutive weeks from the next day. The 0.5% methylcellulose solution was orally administered to the control group. Blood was drawn under a non-fasting state from the tail vein 24 hours after the final administration and the glucose and triglyceride levels of the plasma were measured. The decrease in the plasma glucose and triglyceride levels was calculated from the following formula.

[2] = 3 and 10 mg/kg/day orally, 2 weeks
[3] = 3 mg/kg/day orally for 2 consecutive weeks
[4] = 10 mg/kg/day orally for 2 consecutive weeks

CC(C)(C)N.CC=CC=CC(=O)N1Cc2cc(OCCc3nc(-c4ccc(C(C)C)cc4)oc3C)ccc2C[C@H]1C(=O)O [Example 27, tert-butylamine 2-(2,4-hexadienoyl)-7-{2-[2-(4-isopropylphenyl)-5-methyloxazol-4-yl]ethoxy}-1,2,3,4-tetrahydroisoquinoline-(3S)-carboxylate]
Decrease (%) in glucose level (male KK-A^y mice): 55.8% | Decrease (%) in triglyceride (male KK-A^y mice): 73.8%

CC(C)(C)N.CC=CC=CC(=O)N1Cc2cc(OCCc3nc(-c4ccc(OCc5ccccc5)cc4)oc3C)ccc2C[C@H]1C(=O)O [Example 26, tert-butylamine 7-{2-[2-(4-benzyloxyphenyl)-5-methyloxazol-4-yl]ethoxy}-2-(2,4-hexadienoyl)-1,2,3,4-tetrahydroisoquinoline-(3S)-carboxylate]
Decrease (%) in glucose level (male KK-A^y mice): 43.7% | Decrease (%) in triglyceride (male KK-A^y mice): 67.8%

CC=CC=CC(=O)N1Cc2cc(OCCc3nc(-c4ccccc4)oc3C)ccc2C[C@H]1C(=O)O [Example 6]
body weight, difference from control group [1]: no significant difference | erythrocyte count, difference from control group [1]: no significant difference | hematocrit value, difference from control group [1]: no significant difference | total blood volume, difference from control group [1]: no significant difference | weight of the heart, difference from control group [1]: no significant difference | weight of the liver, difference from control group [1]: no significant difference | weight of white fat around the uterus, difference from control group [1]: no significant difference | ALT (GPT), difference from control group ([1]; serum): no significant difference | AST (GOT), difference from control group ([1]; serum): no significant difference | Decrease (%) in glucose level (male KK-A^y mice): 45.9% | Decrease (%) in triglyceride (male KK-A^y mice): 45.7% | body weight, difference from control group (6-week-old male SD rats): no significant difference | erythrocyte count, difference from control group (6-week-old male SD rats): no significant difference | hematocrit value, difference from control group (6-week-old male SD rats): no significant difference | total blood volume, difference from control group (6-week-old male SD rats): no significant difference | weight of the heart, difference from control group (6-week-old male SD rats): no significant difference | weight of the liver, difference from control group (6-week-old male SD rats): no significant difference | weight of white fat around the epididymides, difference from control group (6-week-old male SD rats): no significant difference | ALT (GPT), difference from control group (6-week-old male SD rats; serum): no significant difference | AST (GOT), difference from control group (6-week-old male SD rats; serum): no significant difference | plasma glucose level after treatment (male db/db mice; [2]): almost the normal levels | plasma triglyceride level after treatment (male db/db mice; [2]): almost the normal levels | Decrease (%) in glucose level (male db/db mice; [3]): 59.9% | Decrease (%) in triglyceride (male db/db mice; [3]): 77.1% | Decrease (%) in glucose level (male db/db mice; [4]): 64.4% | Decrease (%) in triglyceride (male db/db mice; [4]): 78.8%

CCCCC=CC(=O)N1Cc2cc(OCCc3nc(-c4ccccc4)oc3C)ccc2C[C@H]1C(=O)O [Example 2, 2-(2-heptenoyl)-7-[2-(5-methyl-2-phenyloxazol-4-yl)ethoxy]-1,2,3,4-tetrahydroisoquinoline-(3S)-carboxylic acid]
Decrease (%) in glucose level (male KK-A^y mice): 46.8% | Decrease (%) in triglyceride (male KK-A^y mice): 44.9%

CC(C)(C)N.CC=CC=CC(=O)N1Cc2cc(OCCc3nc(-c4ccc(C(C)(C)C)cc4)oc3C)ccc2C[C@H]1C(=O)O [Example 16, tert-butylamine 7-{2-[2-(4-tert-butylphenyl)-5-methyloxazol-4-yl]ethoxy}-2-(2,4-hexadienoyl)-1,2,3,4-tetrahydroisoquinoline-(3S)-carboxylate]
Decrease (%) in glucose level (male KK-A^y mice): 60.9% | Decrease (%) in triglyceride (male KK-A^y mice): 73.4%

CCCC#CC(=O)N1Cc2cc(OCCc3nc(-c4ccccc4)oc3C)ccc2C[C@H]1C(=O)O [Example 8, 2-(2-hexynoyl)-7-[2-(5-methyl-2-phenyloxazol-4-yl)ethoxy]-1,2,3,4-tetrahydroisoquinoline-(3S)-carboxylic acid]
Decrease (%) in glucose level (male KK-A^y mice): 46.1% | Decrease (%) in triglyceride (male KK-A^y mice): 55.2%

CC(C)(C)N.CC=CC=CC(=O)N1Cc2cc(OCCc3nc(-c4ccc(N(C)C)cc4)oc3C)ccc2C[C@H]1C(=O)O [Example 31, tert-butylamine 7-{2-[2-(4-dimethylaminophenyl)-5-methyloxazol-4-yl]ethoxy}-2-(2,4-hexadienoyl)-1,2,3,4-tetrahydroisoquinoline-(3S)-carboxylate]
Decrease (%) in glucose level (male KK-A^y mice): 39.4% | Decrease (%) in triglyceride (male KK-A^y mice): 20.1%
